According to the NIST ThermoML archive (doi:10.1021/je300345m):

Test: xn = mol fraction of the nth substance listed
Details: Liquid, Vibrating tube method

OCCNCCO [diethanolamine] + O
mass density [kg/m3]
Details | x1 = 0.0684 | x1 = 0.1025 | x1 = 0.1463 | x1 = 0.2045 | x1 = 0.2856 | x1 = 0.4067 | x1 = 0.6066 | x1 = 1
298.15 K, 100 kPa | 1034 | 1047.2 | 1059.5 | 1071.4 | 1081 | 1088 | 1092.2 | 1093.6
303.15 K, 100 kPa | 1031.8 | 1044.8 | 1056.9 | 1068.5 | 1077.9 | 1085 | 1088.9 | 1090.4
308.15 K, 100 kPa | 1029.7 | 1042.4 | 1054.2 | 1065.6 | 1074.9 | 1081.8 | 1085.8 | 1087.1
313.15 K, 100 kPa | 1027.2 | 1039.6 | 1051.3 | 1062.6 | 1071.7 | 1078.7 | 1082.7 | 1083.8
318.15 K, 100 kPa | 1024.9 | 1037 | 1048.4 | 1059.5 | 1068.6 | 1075.5 | 1079.5 | 1080.6
323.15 K, 100 kPa | 1022.2 | 1034.2 | 1045.4 | 1056.6 | 1065.3 | 1072.2 | 1076.2 | 1077.4
328.15 K, 100 kPa | 1019.5 | 1031.4 | 1042.4 | 1053.2 | 1062.1 | 1068.9 | 1073 | 1074.1
333.15 K, 100 kPa | 1016.6 | 1028.3 | 1039.2 | 1049.9 | 1058.8 | 1065.6 | 1069.6 | 1070.8
338.15 K, 100 kPa | 1013.8 | 1025.2 | 1036 | 1046.5 | 1055.3 | 1062.2 | 1066.3 | 1067.4
343.15 K, 100 kPa | 1010.6 | 1022 | 1032.6 | 1043.1 | 1051.8 | 1058.8 | 1062.9 | 1064
348.15 K, 100 kPa | 1007.5 | 1018.8 | 1029.3 | 1039.7 | 1048.3 | 1055.3 | 1059.4 | 1060.6
353.15 K, 100 kPa | 1004.2 | 1015.3 | 1025.8 | 1036 | 1044.8 | 1051.7 | 1055.9 | 1057.2
358.15 K, 100 kPa | 1000.8 | 1011.9 | 1022.3 | 1032.5 | 1041.1 | 1048 | 1052.4 | 1053.7
363.15 K, 100 kPa | 997.3 | 1008.3 | 1018.6 | 1028.7 | 1037.2 | 1044.4 | 1048.8 | 1050.1
373.15 K, 700 kPa | 990.2 | 1000.9 | 1011.5 | 1021.2 | 1029.9 | 1037.2 | 1041.8 | 1043.3
383.15 K, 700 kPa | 982.3 | 992.9 | 1003.3 | 1012.9 | 1021.7 | 1028.9 | 1033.8 | 1035.5
393.15 K, 700 kPa | 974.2 | 984.7 | 995.1 | 1004.7 | 1013.5 | 1020.9 | 1026 | 1028.1
403.15 K, 700 kPa | 965.8 | 976.3 | 986.7 | 996.2 | 1005.1 | 1012.8 | 1018.2 | 1020.5
413.15 K, 700 kPa | 957.1 | 967.5 | 977.9 | 987.5 | 996.5 | 1004.5 | 1010.2 | 1012.9
423.15 K, 700 kPa | 947.9 | 958.1 | 969 | 978.2 | 987.2 | 995.4 | 1001.7 | 1004.8

CN(CCO)CCO [N-methyldiethanolamine] + O
mass density [kg/m3]
Details | x1 = 0.0609 | x1 = 0.0916 | x1 = 0.1313 | x1 = 0.1848 | x1 = 0.2608 | x1 = 0.3768 | x1 = 0.5764 | x1 = 1
298.15 K, 100 kPa | 1025.2 | 1035.6 | 1043.3 | 1049.7 | 1053.6 | 1052.3 | 1046 | 1036
303.15 K, 100 kPa | 1022.8 | 1032.8 | 1040.9 | 1046.1 | 1049.9 | 1048.6 | 1042.3 | 1032.4
308.15 K, 100 kPa | 1020.3 | 1029.9 | 1037.6 | 1042.5 | 1046.2 | 1044.8 | 1038.4 | 1028.6
313.15 K, 100 kPa | 1017.7 | 1026.9 | 1034.3 | 1038.8 | 1042.4 | 1040.9 | 1034.6 | 1024.8
318.15 K, 100 kPa | 1014.9 | 1023.8 | 1030.8 | 1034.7 | 1038.5 | 1037 | 1030.8 | 1021
323.15 K, 100 kPa | 1012 | 1020.6 | 1027.3 | 1031.1 | 1034.6 | 1033.1 | 1026.9 | 1017.2
328.15 K, 100 kPa | 1009 | 1017.2 | 1023.7 | 1027.3 | 1030.6 | 1029.1 | 1022.9 | 1013.3
333.15 K, 100 kPa | 1005.9 | 1013.8 | 1020.1 | 1023.6 | 1026.6 | 1025 | 1019 | 1009.4
338.15 K, 100 kPa | 1002.7 | 1010.3 | 1016.3 | 1019.8 | 1022.5 | 1020.9 | 1015 | 1005.6
343.15 K, 100 kPa | 999.3 | 1006.7 | 1012.5 | 1015.9 | 1018.4 | 1016.8 | 1010.9 | 1001.7
348.15 K, 100 kPa | 995.9 | 1003 | 1008.5 | 1011.9 | 1014.2 | 1012.6 | 1006.9 | 997.7
353.15 K, 100 kPa | 992.3 | 999.2 | 1004.6 | 1007.7 | 1009.9 | 1008.4 | 1002.7 | 993.8
358.15 K, 100 kPa | 988.7 | 995.3 | 1000.4 | 1003.5 | 1005.2 | 1004.1 | 998.6 | 989.9
363.15 K, 100 kPa | 984.9 | 991.3 | 996.3 | 999.2 | 1000.9 | 999.8 | 994.4 | 985.9
373.15 K, 700 kPa | 977.2 | 982.9 | 987.6 | 990.7 | 992 | 990.6 | 985.7 | 978.6
383.15 K, 700 kPa | 968.8 | 974.1 | 978.5 | 981.4 | 982.6 | 981.4 | 976.9 | 970.3
393.15 K, 700 kPa | 960.2 | 965.2 | 969.3 | 972.1 | 973.3 | 972.2 | 968.1 | 962.1
403.15 K, 700 kPa | 951.2 | 955.9 | 959.8 | 962.5 | 963.7 | 962.9 | 959.3 | 953.9
413.15 K, 700 kPa | 941.9 | 946.4 | 950.1 | 952.7 | 954 | 953.4 | 950.4 | 945.6
423.15 K, 700 kPa | 931.9 | 936.1 | 939.6 | 942.3 | 943.6 | 943.4 | 940.9 | 937
